Measurements published in publication PMC4104761, “Identification of a novel lytic peptide for the treatment of solid tumours” (Genes & Cancer, 2014).

Legend:
[1] = Surface plasmon resonance (SPR) binding to liposomes; conditions: BIAcore 3000, L1 chip, curve fitting
Experimental: SPR was used to quantify the binding of Cypep-1 to phospholipid model membranes of different compositions at neutral pH (pH 7.4) and a temperature of 25 °C. 100 nm liposomes made of egg yolk […] (EYL; L-α-phosphatidylcholine; 95% purity) were employed to represent amphitropic, neutral membranes, while liposomes composed of both pig brain L-α-phosphatidylserine (PBPS) and EYL (from Avanti Polar Lipids Inc., Alabaster, Alabama, USA), with PBPS:EYL in a 1:1 M: M mixture, represented acidic, negatively charged membranes. […] [79]. The SPR analyses were carried out on a BIAcore 3000 instrument (BIAcore AB, Uppsala, Sweden) as described in Halskau et al., using a L1 sensor chip from BIAcore (BIAcore AB, Uppsala, Sweden).

[2] = test system: HOB normal human osteoblasts; test: MTT viability assay; assay type: cell-based; conditions: 20 µg Cypep-1/ml, 60 min incubation
Experimental: (§1) Cypep-1 was tested in various concentrations on a total of 17 cell lines, which included 13 human and 1 murine tumour cell line(s), as well as 3 normal human cell lines. Listed in detail: 4 human osteosarcoma (U2OS, SaOS2, HOS and MNNG-HOS), 6 human glioblastoma (A172, GaMg, LN18, U87, U373 and T98G) and 3 human mammary carcinoma cell lines (MCF7, AU565 and MDA-MB-468) as well as an additional murine mammary carcinoma cell line (4T1). Furthermore, 3 normal human cell lines were included: 2 normal human fibroblast cell lines (HFF1 and 142Br) as well as normal human osteoblasts (HOB).
(§2) All normal human cell lines were purchased from Promo Cell (Heidelberg, Germany). While the normal human foreskin fibroblasts (HFF1) were grown in DMEM medium as described above, the additional human skin fibroblast cell line (142Br) and the normal human osteoblasts (HOB) were cultured in purchased cell type specific growth mediums (Promo Cell, Heidelberg, Germany).
(§3) MTT proliferation assays were performed on all cell lines (with the exception of 142Br (human skin fibroblasts)), using monolayers of 15 000 cells in sterile 96 well tissue culture plates (Nunc™, Roskilde, Denmark), respectively. […]

[3] = test system: HFF1 normal human foreskin fibroblasts; test: MTT viability assay; assay type: cell-based; conditions: 20 µg Cypep-1/ml, 60 min incubation
Experimental: as §1, §2, §3

[4] = test system: osteosarcoma cell lines (U2OS, SaOs2); test: LIVE/DEAD Viability/Cytotoxicity assay; assay type: cell-based, human; conditions: morphometric evaluation (Calcein), 35 µg Cypep-1/ml, 3 hours
Experimental: In order to visualise and quantify the cytotoxic action of Cypep-1 simultaneously, the LIVE/DEAD® Viability/Cytotoxicity Kit was employed according to the manufacturers instructions on monolayers of 30 000 cells in sterile 24 multi well dishes (Nunc™, Roskilde, Denmark), using the selected human osteosarcoma cell lines U2OS and SaOs2 as well as the two human fibroblast cell lines HFF1 (foreskin) and 142Br (skin).
The monolayer cultures were incubated with Cypep-1 for a period of 3 hours in concentrations ranging from 2.5 µg to 35 µg/ml. The cells were observed using an inverted fluorescence microscope (Nikon Eclipse 2000E, Tokyo, Japan) equipped with FITC (green fluorescence) and TRITC (red fluorescence) filter optics. The fluorescent cells were then photographed at a 10x magnification. The proportions of viable cells (live cells showing green fluorescence due to the presence of Calcein) and dead cells (red fluorescent due to the membrane penetration of Ethidium-Homodimer-1) were quantified using a Lucia G Morphometry System, Version 4.71 (Laboratory Imaging, Prague, Czech Republic).

[5] = Biodistribution of 125I-Cypep-1 after i.v. injection; assay type: in vivo, Wistar rat; conditions: rat
Experimental: The radio labelling of Cypep-1 was performed with ^125I, according to the Iodo-Gen method as described by Fraker et al.. The obtained ^125I-Cypep-1 stock solution was stored in the dark at 4°C for 48 hours prior to validation by reversed phase chromatography, using a 4.6 × 50 mm Dionex Proswift RP-2H column on an Ettan LC System (GE Healthcare, Oslo, Norway) in line with a Radiomatic 610TR Flow System Analyzer by Perkin Elmer (PerkinElmer, Waltham, MA) for gamma detection.
The plasma activity and biodistribution of ^125I-Cypep-1 was evaluated in a single experiment. An adult female Wistar rat of 260 g body weight was anaesthetized using 15 mg of Pentobarbital i.p.. Its body temperature was maintained at 37°C, using both a heating pad and an infrared lamp. Two PE-50 polyethylene catheters were placed into the femoral vein for the bolus injection of Cypep-1 and one into the femoral artery for blood sampling. 50 µl of the ^125I-Cypep-1 stock solution dissolved in 500 µl 0.9% NaCl were injected i.v., and a total of six arterial blood samples (100 µl per sample) were collected at 0.25, 1, 5, 10, 15 and 20 min following the ^125I-Cypep-1 administration. The animal was sacrificed under deep anaesthesia with an i.v. bolus injection of 0.5 ml saturated KCl. The tissue and plasma samples were harvested immediately and counted for ^125I-activity in a gamma-counter (LKB Wallac 1285, Turku, Finland). The peptide distribution volumes in the various body tissues were calculated as the ^125I-activity per gram tissue sample divided by the time-averaged plasma ^125I-activity during the 20 minutes clearance period (*= plasma equivalent space in ml/g tissue wet weight).

[6] = 125I-Cypep-1, i.v., 20 min after administration, gamma counting, single animal

YGRKKRRQRRRGKTLRVAKAIYKRYIE [Cypep-1]
peptide concentration of half-maximal binding (S0.5) ([1]; 100 nm EYL liposomes, pH 7.4, 25 °C): 39.1 ± 5.3 µg/mL | peptide concentration of half-maximal binding (S0.5) ([1]; 100 nm liposomes PBPS:EYL 1:1, pH 7.4, 25 °C): 16.2 ± 4.4 µg/mL | survival rate [2]: 44% | survival rate [3]: 66% | average surviving fraction [4]: lower than 5% | tissue distribution, cerebellum [5, 6]: 0.00 ml/g tissue wet weight | tissue distribution, cerebrum [5, 6]: 0.01 ml/g tissue wet weight | tissue distribution, colon [5, 6]: 0.14 ml/g tissue wet weight | tissue distribution, eye [5, 6]: 0.02 ml/g tissue wet weight | tissue distribution, jejunum [5, 6]: 0.17 ml/g tissue wet weight | tissue distribution, kidneys (per kidney) [5, 6]: 1.685 ml/g tissue wet weight | tissue distribution, liver [5, 6]: 11.74 ml/g tissue wet weight | tissue distribution, lungs [5, 6]: 0.38 ml/g tissue wet weight | tissue distribution, muscle tissue [5, 6]: 0.02 ml/g tissue wet weight | tissue distribution, spleen [5, 6]: 4.89 ml/g tissue wet weight | tissue distribution, stomach [5, 6]: 0.04 ml/g tissue wet weight | tissue distribution, thyroid gland [5, 6]: 0.13 ml/g tissue wet weight | passage of the blood-brain-barrier ([5]; concluded from very low concentrations in organs of the central nervous system, i.v.): did not pass the blood-brain-barrier
